pIC50: −log10 of the molar value.
Experiments:
[1] = test system: U-46619-induced platelet aggregation (rat platelet rich plasma); experiment: Inhibition of U-46619-induced platelet aggregation in vitro in rat platelet rich plasma; type: cell-based; conditions: rat PRP
Procedure: Platelet rich plasma (PRP) was prepared from heparanized whole blood (5 units/ml) drawn from the abdominal aorta of ether anesthetized rats. PRP was prepared by centrifugation (Sorvall RC2B, DuPont, Wilmington, Del.) of the whole blood at 150×g for 10 min. Platelet poor plasma (PPP) was prepared by centrifugation at 1200×g for 20 min. Aliquots of PRP and PPP were used to standardize the aggregometer (Payton, Buffalo, N.Y., model 300B) with the recorder (Riken Denshi 2 channel recorder, Payton, model SP-H5P) for measurement of minimum and maximum light transmittance, respectively.
Platelet aggregation was measured as an increase in light transmittance. PRP (390 μl aliquot 5 μl compound vehicle) was preincubated for 1 min. at 37° C., with stirring at 900 rpm in the aggregometer. […] Amount of aggregation was measured by grids on the strip chart.
Compounds were dissolved in either ethanol (ETOH) or Na2 CO3 (0.1 M) and preincubated at the desired concentration in PRP for 1 min. at 37° C. with stirring. […] Dose response curves were generated and IC50 's calculated by linear regression.

washed human platelets = experiment: Analysis of partial agonism (human washed platelets); type: cell-based; conditions: 5 and 10 min. incubation
Procedure: Sixty ml of blood were drawn into 1/10 volume of CCD (100 mM Na Citrate and 136 mM glucose, pH 6.5 with HCl) and PRP prepared as described above. PRP was placed on ice for 15 min. One half of the volume of CCD was added and recentrifuged. The platelet pellet was gently resuspended in 1/2 the original volume of PRP in a 0° C. modified Tangen-Hepes-BSA buffer (145 mM NaCl, 5 mM KCl, 0.05 mM CaCl2, 0.1 mM MgCl2, 11 mM glucose, 15 mM Hepes, 1 mg/ml bovine serum albumin, pH adjusted to 7.4 with NaOH). The resuspended platelets were incubated undisturbed at 37° C. for 30 min. After incubation a platelet count was determined and adjusted to 3×10^8 cells/ml with the Tangen-Hepes-BSA buffer.
425 μl of the washed human platelet suspension was incubated in the aggregometer in the presence of 16 mM CaCl2 (50 μl) and SC-46985 for 5 and 10 min. […] (In a study similar to (a) above, aliquots of human washed platelets were incubated with various concentrations of SC-46985 and U-46619 to determine dose-related inhibition of aggregation).

With `CC(=NNC(=S)Nc1ccccc1)[C@@H]1[C@H]2CC[C@H](C2)[C@H]1C/C=C\CCCC(=O)O` (relative stereo) [SC-44161, (±)7-[3α[[(Phenylamino)thioxomethyl]hydrazono]ethyl]1α,4α-bicyclo[2.2.1]hept-2β-yl]-5Z-heptenoic acid] the “fold more potent in aqueous solution than in ethanol” value ([1]; Na Carbonate vs ETOH vehicle) was 5-10 fold and the pIC50 ([1]; Rattus norvegicus, Platelet, vehicle ETOH) was 6.59.

For `CC(=NNC(=S)Nc1ccccc1)[C@H]1[C@@H]2CC[C@@H](C2)[C@@H]1C/C=C\CCCC(=O)O` [SC-46985], the partial agonist activity (washed human platelets) was “lack of partial agonist activity” and the “shape change or aggregation” value (washed human platelets; no U-46619) was “no evidence of shape change or aggregation”.
